According to ChEMBL document CHEMBL1201862, “PubChem BioAssay data set” (2004):
Active and inactive are the calls of the source.

Legend:
[1] = Luminescence Cell-Based Dose Response HTS to Identify Inhibitors of Luciferase Translation or Activity in H4-C Neuroglioblastoma Cells. [Related pubchem assays: 1813 (Primary HTS), 1827 (Project Summary)]; type: functional
[2] = Luminescence Cell-Based Dose Response HTS to Identify Activators of Luciferase Translation or Activity in H4-C Neuroglioblastoma Cells. [Related pubchem assays: 1829 (Project Summary), 1814 (Primary HTS)]; type: functional
[3] = luciferase reporter signal suppression in cells – H4 neuroglioma cells, luminescence, dose response (AID 1990); type: functional, cell-based
[4] = luciferase reporter signal reduction – luminescence, H4-C neuroglioblastoma cells, dose response (AID 2458); type: functional, cell-based;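 further: H4 neuroglioblastoma cells stably carrying a luciferase reporter gene fusion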
[5] = Luminescence Cell-Based Dose Retest to Confirm Activators of 5'UTR Stem-Loop Driven Alpha-Synuclein mRNA Translation in H4 Neuroglioblastoma Cells. [Related pubchem assays (depositor defined):AID1813, AID1829]; type: functional
[6] = Luminescence Cell-Based Dose Response HTS to Identify Activators of 5'UTR Stem-Loop Driven Prion Protein mRNA Translation in H4-C Neuroglioblastoma Cells. [Related pubchem assays: 1829 (Project Summary), 1814 (Primary HTS)]; type: functional
[7] = Luminescence Cell-Based Dose HTS Response to Identify Inhibitors of 5'UTR Stem-Loop Driven Prion Protein mRNA Translation in H4-C Neuroglioblastoma Cells. [Related pubchem assays (depositor defined):AID1814, AID1827]; type: functional
[8] = cells; type: functional, cell-based
[9] = Luminescence Cell-Based Dose Response HTS to Identify Inhibitors of 5'UTR Stem-Loop Driven Prion Protein mRNA Translation in H4 Neuroglioblastoma Cells. [Related pubchem assays: 1827 (Project Summary), 1813 (Primary HTS)]; type: functional
[10] = alpha-synuclein stem-loop luciferase translation blockers – H4 neuroglioma cells, luminescence, confirmation (AID 1988); type: functional, cell-based
[11] = Luminescence Cell-Based Dose Confirmation HTS to Identify Inhibitors of 5'UTR Stem-Loop Driven Alpha-Synuclein mRNA Translation in H4 Neuroglioblastoma Cells. [Related pubchem assays: 1827 (Project Summary), 1813 (Primary HTS)]; type: functional
[12] = alpha-synuclein stem-loop translation blockers – luminescence, H4 neuroglioblastoma cells, dose confirmation, confirmation (AID 2454); type: functional, cell-based;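 further: H4 neuroglioblastoma cells carrying an alpha-synuclein 5'UTR luciferase reporter; potency for inhibition of the luciferase signal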
[13] = HEK-293T viability loss after treatment – luminescence, T-cell screen hits, cytotoxicity control for TCR NF-kB inhibitor project, dose response (AID 489026); type: functional, cell-based;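 further: cells exposed to compound about 14 hours before the viability readout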
[14] = target: T1, Tyrosine-protein phosphatase non-receptor type 7 (Homo sapiens, UniProt P35236); type: functional
T1 sequence (P35236 whole entry): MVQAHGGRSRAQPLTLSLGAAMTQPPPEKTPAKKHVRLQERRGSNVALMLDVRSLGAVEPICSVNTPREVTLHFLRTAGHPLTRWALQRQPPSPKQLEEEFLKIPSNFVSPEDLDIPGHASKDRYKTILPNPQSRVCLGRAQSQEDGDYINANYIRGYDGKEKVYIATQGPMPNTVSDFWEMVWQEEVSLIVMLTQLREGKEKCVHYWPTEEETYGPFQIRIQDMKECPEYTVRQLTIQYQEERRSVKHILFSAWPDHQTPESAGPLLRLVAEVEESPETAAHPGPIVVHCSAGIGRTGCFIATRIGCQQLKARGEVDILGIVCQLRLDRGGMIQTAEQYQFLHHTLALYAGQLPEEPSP

[15] = target: T2, Tyrosine-protein phosphatase non-receptor type 22 (Homo sapiens, UniProt Q9Y2R2); type: functional
T2 sequence (Q9Y2R2 whole entry): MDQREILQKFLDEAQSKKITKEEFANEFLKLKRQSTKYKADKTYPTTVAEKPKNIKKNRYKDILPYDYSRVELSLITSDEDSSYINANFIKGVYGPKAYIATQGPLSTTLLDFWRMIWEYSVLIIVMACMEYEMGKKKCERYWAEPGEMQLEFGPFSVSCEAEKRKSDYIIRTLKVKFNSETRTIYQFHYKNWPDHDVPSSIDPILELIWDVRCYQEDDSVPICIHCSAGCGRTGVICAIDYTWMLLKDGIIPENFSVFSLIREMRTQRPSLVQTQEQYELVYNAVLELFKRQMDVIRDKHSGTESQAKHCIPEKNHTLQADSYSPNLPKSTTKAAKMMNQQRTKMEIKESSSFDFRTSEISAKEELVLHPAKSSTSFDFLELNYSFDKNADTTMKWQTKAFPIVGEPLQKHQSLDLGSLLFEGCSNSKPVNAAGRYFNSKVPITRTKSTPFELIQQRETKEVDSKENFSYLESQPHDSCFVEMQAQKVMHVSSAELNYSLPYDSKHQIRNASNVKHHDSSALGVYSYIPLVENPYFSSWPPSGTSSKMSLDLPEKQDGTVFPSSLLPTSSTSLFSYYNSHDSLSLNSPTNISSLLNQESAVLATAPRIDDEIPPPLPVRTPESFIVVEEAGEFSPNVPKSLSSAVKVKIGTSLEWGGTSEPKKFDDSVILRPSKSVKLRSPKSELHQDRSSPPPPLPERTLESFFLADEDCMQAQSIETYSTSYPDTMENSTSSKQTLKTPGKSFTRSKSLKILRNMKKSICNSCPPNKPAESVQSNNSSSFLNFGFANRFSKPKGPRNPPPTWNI

[16] = target: T2, Tyrosine-protein phosphatase non-receptor type 22; type: functional; remark: listed apart in the source
[17] = target: Sphingosine 1-phosphate receptor 1 (Homo sapiens, UniProt P21453); assay: Fluorescence-based counterscreen assay for S1P4 agonists: Cell-based dose response high throughput screening assay to identify agonists of the Sphingosine 1-Phosphate Receptor 1 (S1P1). [Related pubchem assays (depositor defined):AID1509, AID1523, AID1801, AID463107, AID463118, AID463119, AID463122, AID463123, AID463129, AID463225, AID504400, AID504460]; type: functional
Chain of Sphingosine 1-phosphate receptor 1 (P21453 whole entry): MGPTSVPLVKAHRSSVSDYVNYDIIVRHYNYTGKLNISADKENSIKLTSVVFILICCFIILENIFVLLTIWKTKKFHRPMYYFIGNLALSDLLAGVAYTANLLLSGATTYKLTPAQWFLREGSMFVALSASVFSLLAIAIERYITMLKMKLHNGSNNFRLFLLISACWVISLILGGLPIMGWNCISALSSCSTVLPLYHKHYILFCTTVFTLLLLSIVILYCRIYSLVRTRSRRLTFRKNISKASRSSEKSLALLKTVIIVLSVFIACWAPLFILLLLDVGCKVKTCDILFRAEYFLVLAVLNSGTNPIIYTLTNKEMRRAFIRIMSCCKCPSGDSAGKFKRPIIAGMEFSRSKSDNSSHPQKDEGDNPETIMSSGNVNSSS

[18] = target: T3, Sphingosine 1-phosphate receptor 4 (Homo sapiens, UniProt O95977); assay: Fluorescence dose response cell-based high throughput screening assay for agonists of the Sphingosine 1-Phosphate Receptor 4 (S1P4). [Related pubchem assays: 1509 (Primary screen.), 1523 (Confirmation screen in triplicates.)]; type: functional
T3 sequence (O95977 whole entry): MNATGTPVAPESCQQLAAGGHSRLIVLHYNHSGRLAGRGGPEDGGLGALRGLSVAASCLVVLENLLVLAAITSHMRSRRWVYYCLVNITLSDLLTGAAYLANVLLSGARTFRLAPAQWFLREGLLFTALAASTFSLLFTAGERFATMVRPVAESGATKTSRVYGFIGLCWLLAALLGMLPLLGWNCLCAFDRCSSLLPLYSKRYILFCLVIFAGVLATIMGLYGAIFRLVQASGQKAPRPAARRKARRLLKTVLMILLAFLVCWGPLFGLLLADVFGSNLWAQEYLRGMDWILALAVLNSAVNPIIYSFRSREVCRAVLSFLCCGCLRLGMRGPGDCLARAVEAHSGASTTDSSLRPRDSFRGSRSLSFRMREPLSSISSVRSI

[19] = target: T4, G-protein coupled receptor 55 (Homo sapiens, UniProt Q9Y2T6); assay: inhibition of LPI-stimulated GPR55 beta-arrestin translocation – imaging, U2OS, beta-arrestin-GFP, LPI agonist, primary screen (AID 2013); type: functional;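 further: antagonist potency measured as reduced agonist-driven arrestin aggregation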
T4 sequence (Q9Y2T6 whole entry): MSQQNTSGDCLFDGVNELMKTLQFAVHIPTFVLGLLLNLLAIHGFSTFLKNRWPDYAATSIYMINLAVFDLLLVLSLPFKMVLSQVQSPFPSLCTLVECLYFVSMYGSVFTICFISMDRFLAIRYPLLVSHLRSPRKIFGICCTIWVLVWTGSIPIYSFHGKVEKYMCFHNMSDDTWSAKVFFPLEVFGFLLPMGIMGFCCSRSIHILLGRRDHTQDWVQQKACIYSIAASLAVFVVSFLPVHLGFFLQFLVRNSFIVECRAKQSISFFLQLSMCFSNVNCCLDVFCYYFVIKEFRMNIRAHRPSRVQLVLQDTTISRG

[20] = target: T5, Calpain-2 catalytic subunit (Sus scrofa, UniProt P43367); assay: m-calpain protease blockers, concentration series – biochemical, fluorogenic peptide substrate, dose response (AID 1420); type: functional
T5 sequence (P43367 whole entry): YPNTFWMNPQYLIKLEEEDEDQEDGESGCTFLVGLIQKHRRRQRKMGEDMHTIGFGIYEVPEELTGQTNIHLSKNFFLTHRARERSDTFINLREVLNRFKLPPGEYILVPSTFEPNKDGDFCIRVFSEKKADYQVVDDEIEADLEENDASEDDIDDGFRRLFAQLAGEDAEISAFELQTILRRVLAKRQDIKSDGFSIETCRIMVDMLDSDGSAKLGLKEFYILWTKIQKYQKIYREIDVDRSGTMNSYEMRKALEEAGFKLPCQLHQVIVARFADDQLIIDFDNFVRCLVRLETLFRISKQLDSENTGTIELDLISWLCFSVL

[21] = target: T6, Cannabinoid receptor 1 (Homo sapiens, UniProt P21554); assay: SAR analysis of antagonists of the Cannabinoid Receptor 1 using an Image-Based Assay - Set 2. [Related pubchem assays (depositor defined):AID2013, AID2026]; type: functional
T6 sequence (P21554 whole entry): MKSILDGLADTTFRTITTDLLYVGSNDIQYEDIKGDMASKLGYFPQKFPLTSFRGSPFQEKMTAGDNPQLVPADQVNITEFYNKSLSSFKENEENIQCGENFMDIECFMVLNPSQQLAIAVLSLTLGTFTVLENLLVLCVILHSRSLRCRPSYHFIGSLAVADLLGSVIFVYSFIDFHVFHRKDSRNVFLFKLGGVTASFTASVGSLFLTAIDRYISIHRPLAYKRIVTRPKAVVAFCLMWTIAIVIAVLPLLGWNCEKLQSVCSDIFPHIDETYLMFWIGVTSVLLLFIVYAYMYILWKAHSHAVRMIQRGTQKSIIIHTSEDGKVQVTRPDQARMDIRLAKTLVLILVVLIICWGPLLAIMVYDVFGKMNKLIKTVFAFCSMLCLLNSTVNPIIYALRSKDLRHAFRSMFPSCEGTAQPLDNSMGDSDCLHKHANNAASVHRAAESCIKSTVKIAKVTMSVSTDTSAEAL

[22] = target: T7, G-protein coupled receptor 35 (Homo sapiens, UniProt Q9HC97); assay: SAR analysis of Agonists of the GPR35 Receptor using an Image-Based Assay - Set 2. [Related pubchem assays (depositor defined):AID2013, AID2026]; type: functional
T7 sequence (Q9HC97 whole entry): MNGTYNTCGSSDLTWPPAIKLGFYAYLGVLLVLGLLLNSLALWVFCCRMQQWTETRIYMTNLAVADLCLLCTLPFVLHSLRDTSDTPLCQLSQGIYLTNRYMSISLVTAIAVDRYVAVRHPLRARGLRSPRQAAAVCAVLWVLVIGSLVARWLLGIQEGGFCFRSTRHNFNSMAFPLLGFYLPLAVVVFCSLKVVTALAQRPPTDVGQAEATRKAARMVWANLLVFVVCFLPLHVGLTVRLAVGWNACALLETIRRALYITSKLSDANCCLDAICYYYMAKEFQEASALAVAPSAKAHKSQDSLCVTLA

[23] = target: T8, Cannabinoid receptor 2 (Homo sapiens, UniProt P34972); assay: SAR analysis of antagonists of the Cannabinoid Receptor 2 using an Image-Based Assay. [Related pubchem assays (depositor defined):AID2013, AID2026]; type: functional
T8 sequence (P34972 whole entry): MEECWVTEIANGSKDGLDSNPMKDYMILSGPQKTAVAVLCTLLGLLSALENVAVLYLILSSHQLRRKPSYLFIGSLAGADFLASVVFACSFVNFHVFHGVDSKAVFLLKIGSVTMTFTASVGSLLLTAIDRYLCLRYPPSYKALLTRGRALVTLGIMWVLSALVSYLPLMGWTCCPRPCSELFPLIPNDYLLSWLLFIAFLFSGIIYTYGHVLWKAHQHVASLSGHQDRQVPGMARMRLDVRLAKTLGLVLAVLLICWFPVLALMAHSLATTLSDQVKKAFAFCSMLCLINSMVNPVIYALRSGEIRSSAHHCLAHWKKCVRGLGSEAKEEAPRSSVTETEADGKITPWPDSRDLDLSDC

[24] = target: T6, Cannabinoid receptor 1; assay: SAR analysis of agonists of the Cannabinoid Receptor 1 using an Image-Based Assay - Set 2. [Related pubchem assays (depositor defined):AID2013, AID2026]; type: functional
[25] = target: T7, G-protein coupled receptor 35; assay: SAR analysis of Antagonists of the GPR35 Receptor using an Image-Based Assay - Set 3. [Related pubchem assays (depositor defined):AID2013, AID2026]; type: functional
[26] = target: T4, G-protein coupled receptor 55; assay: blockade of LPI-induced GPR55 arrestin translocation – imaging, U2OS, beta-arrestin-GFP, LPI agonist, set 2, SAR follow-up (AID 2820); type: functional
[27] = target: T8, Cannabinoid receptor 2; assay: SAR analysis of agonists of the Cannabinoid Receptor 2 using an Image-Based Assay. [Related pubchem assays (depositor defined):AID2013, AID2026]; type: functional
[28] = target: T9, Probable nicotinate-nucleotide adenylyltransferase (Staphylococcus aureus (strain N315), UniProt P65502); type: functional, Staphylococcus aureus subsp. aureus N315;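 on IC50 Mean: confirmatory dose-response retesting of NadD inhibitor hits first found in an ultra-high-throughput screen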
T9 sequence (P65502 whole entry): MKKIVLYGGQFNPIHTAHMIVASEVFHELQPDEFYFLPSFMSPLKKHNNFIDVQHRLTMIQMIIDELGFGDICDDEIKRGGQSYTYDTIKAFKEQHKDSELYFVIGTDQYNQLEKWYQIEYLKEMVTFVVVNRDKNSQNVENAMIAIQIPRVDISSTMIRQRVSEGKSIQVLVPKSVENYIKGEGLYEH

[29] = target: T9, Probable nicotinate-nucleotide adenylyltransferase; type: functional, Staphylococcus aureus subsp. aureus N315; conditions: read-out: IC50_Mean

## CCOC(=O)COc1cccc2c(=O)n(CC(=O)NCc3ccc(F)cc3)ccc12
[1]
  EC50: 1.36 µM (active)
[2]
  EC50: 1.36 µM (inconclusive)
[3]
  EC50: 12.6 µM (active)
[4]
  EC50: > 12 µM (inconclusive)
[5]
  EC50: 26.6 µM (inconclusive)
[6]
  EC50: 22.4 µM (inconclusive)
[7]
  EC50: 22.4 µM (active)
[8]
  EC50: 2.36 µM (active)
[9]
  EC50: > 120 µM (not active)
[10]
  EC50: < 0.1 µM (active)
[11]
  EC50: 26.6 µM (active)
[12]
  EC50: 1.51 µM (active)
[13]
  IC50: > 80 µM (inactive)

## CC1=NN(C(=O)c2ccc(Cn3ccc([N+](=O)[O-])n3)cc2)C(O)(C(F)(F)F)C1 (centres undefined)
[14]
  IC50: > 79.4 µM (inactive)
[15]
  IC50: > 79.4 µM (inactive)
[16]
  IC50: > 79.4 µM (inactive)

## Cc1ccc2nc3c(cc(C#N)c(=O)n3-c3nccs3)c(=O)n2c1
[17]
  EC50: 10.6 µM (inactive)
[18]
  EC50: 3.72 µM (active)

## Cc1cc(C)c2nc(-c3cccnc3)cc(C(=O)Nc3ccc(S(=O)(=O)Nc4onc(C)c4C)cc3)c2c1
[19]
  IC50: 1.55 µM (active)
[20]
  IC50: > 50 µM (not active)
[21]
  IC50: > 32 µM (inactive)
[22]
  EC50: > 32 µM (inactive)
[23]
  IC50: > 32 µM (inactive)
[24]
  EC50: > 32 µM (inactive)
[25]
  IC50: > 32 µM (inactive)
[26]
  IC50: 0.457 µM (active)
[27]
  EC50: > 32 µM (inactive)
[28]
  IC50: 3.76 µM (active)
[29]
  IC50: 12.5 µM (active)
